Results as given in patent US8545816B2, “Benzoic acid ester compounds, compositions, uses and methods related thereto” (Ferrer Internacional, S.A., priority 2005, dated 2013).

Key:
[1] = Phototransposition under UVB lamp irradiation (UV absorption spectrum / TLC follow-up); assay type: physicochemical; conditions: for time to complete phototransposition (conversion to the dibenzoylmethane / benzophenone sunscreen): solution in methanol
Experimental: A solution of 5 mg of 1-phenylvinyl 4-methoxybenzoate in 10 mL of methanol was irradiated with UVB lamps ([…]) for 20 minutes at 35° C. […] The conversion to benzoyl-4-methoxybenzoyl-methane was observed from the beginning, being the complete conversion in 5 minutes.
A sample of 4 mL of a solution containing 0.231 mg of 1-(4-methoxyphenyl)-vinyl 4-tert-butylbenzoate in 50 mL of methanol was irradiated with UVB lamps (60 W·m^−2) for 10 minutes at 35° C. The conversion to avobenzone was completed in 5 minutes.
A sample of 4 mL of a solution containing 0.400 mg of 1-(4-tert-butylphenyl)-vinyl 4-methoxybenzoate in 50 mL of methanol was irradiated with UVB lamps (60 W·m^−2) for 10 minutes at 35° C. The conversion to avobenzone was completed in 5 minutes.
A solution containing 5 mg of 4-benzoyloxy-2-methoxy-benzenesulfonic acid in 10 mL of methanol was irradiated with UVB lamps (60 W·m^−2) for 20 minutes at 35° C. The absorption spectrum was then recorded minute by minute. The conversion to sulisobenzone was complete in 10 minutes.
A sample of 4 mL of a solution containing 0.395 mg of 3-diethylaminophenyl benzoate in 50 mL of methanol was irradiated with UVB lamps (60 W·m^−2) for 20 minutes at 35° C. The phototransformation to 4-diethylamino-2-hydroxybenzophenone was completed in 10 minutes.
A sample of 5 mg of 3-methoxyphenyl benzoate in 10 mL of polydimethylsiloxane (viscosity 10000 cSt) was irradiated with UVB lamps (60 W·m^−2) for 15 hours and 20 minutes at 35° C. The phototransformation to oxybenzone was completed in 40 minutes.
A solution of 5 mg of 1-phenylvinyl 4-tert-butylbenzoate in 10 mL of tert-butanol was irradiated with UVB lamps (60 W·m^−2) for 5 hours at 35° C.

[2] = cited from earlier work; for Absorbance: UV region absorbed; for Protection nm: wavelength range of protection

| time to complete phototransposition (conversion to the dibenzoylmethane / benzophenone sunscreen) ([1]; UVB lamps 60 W·m^−2, 35° C.) [min] | Structure (SMILES) | Absorbance [2] | Protection nm [2] | other results |
| --- | --- | --- | --- | --- |
| 10 | CCN(CC)c1cccc(OC(=O)c2ccccc2)c1 [3-diethylaminophenyl benzoate, 3-Diethylaminophenyl benzoate] |  |  |  |
|  | COc1ccc(C(=O)CC(=O)c2ccc(C(C)(C)C)cc2)cc1 [Avobenzone, 4-tert-butyl-4′-methoxydibenzoylmethane] | UVA I^1 (340-400 nm) | 320-400 nm |  |
| 5 | C=C(OC(=O)c1ccc(C(C)(C)C)cc1)c1ccc(OC)cc1 [1-(4-Methoxyphenyl)-vinyl 4-tert-butylbenzoate] |  |  |  |
|  | COc1ccc(C(=O)c2ccccc2)c(O)c1 [Oxybenzone, 2-hydroxy-4-methoxybenzophenone] | UVB, UVA II^2 | 270-350 nm |  |
| 5 | C=C(OC(=O)c1ccc(OC)cc1)c1ccccc1 [1-phenylvinyl 4-methoxybenzoate, 1-Phenylvinyl 4-methoxybenzoate] |  |  | crude reaction spectrum after irradiation ([1]; methanol, UVB lamps, 20 minutes, 35° C.): new absorption band in UVA zone |
|  | COc1cc(O)c(C(=O)c2ccccc2)cc1S(=O)(=O)O [Sulisobenzone, 5-benzoyl-4-hydroxy-2-methoxy-benzenesulfonic acid] | UVB, UVA II^2 | 260-375 nm |  |
|  | COc1cccc(OC(=O)c2ccccc2)c1 [3-methoxyphenyl benzoate, 3-Methoxyphenyl benzoate] |  |  | time to complete phototransformation to oxybenzone ([1]; in polydimethylsiloxane (viscosity 10000 cSt), UVB lamps 60 W·m^−2, 35° C.): 40 min |
| 5 | C=C(OC(=O)c1ccc(OC)cc1)c1ccc(C(C)(C)C)cc1 [1-(4-Tert-butylphenyl)-vinyl 4-methoxybenzoate] |  |  |  |
| 10 | COc1cc(OC(=O)c2ccccc2)ccc1S(=O)(=O)O [4-Benzoyloxy-2-methoxybenzene-sulfonic acid] |  |  |  |
|  | C=C(OC(=O)c1ccc(C(C)(C)C)cc1)c1ccccc1 [1-phenylvinyl 4-tert-butylbenzoate, 1-Phenylvinyl 4-tert-butyl-benzoate] |  |  | products detected after irradiation (thin layer chromatography, 1H-NMR) ([1]; tert-butanol, UVB lamps 60 W·m^−2, 5 hours, 35° C.): Some different compounds were detected by thin layer chromatography (hexane/ethyl acetate 2:1), one of said compounds being benzoyl-4-tert-butylbenzoylmethane |
